Experimental data as given in patent US20250250227A1, “AMINO LIPID COMPOUND, PREPARATION METHOD THEREFOR, COMPOSITION THEREOF AND USE THEREOF” (SHENZHEN SHENXIN BIOTECHNOLOGY CO., LTD., priority 2022, published 2025).

How the values were obtained:
[1] = system: Female BALB/c mice; assay: IFN-γ Elispot cellular immunity test, spleen lymphocytes of mice immunized with IN002.5.1 mRNA LNP; assay type: in vivo; details: 50 μL IM, spleen on 7th day after immunization, FIG. 2-4
Procedure: An IN002.5.1 mRNA-encapsulating lipid nanoparticle formulation was prepared according to the method as described in Experimental Example 1, with replacing the luciferase mRNA (Fluc mRNA) with IN002.5.1 mRNA, with a concentration of IN002.5.1 mRNA of 0.2 g/L, a mass ratio of IN002.5.1 mRNA to Lipid of 1:10, a particle size of 80-130 nm, and an encapsulation efficiency of 90% or higher.
The sequence of IN002.5.1 mRNA is one obtained by replacing all uracil (u) in SEQ ID NO. 1 with N1-methylpseudouridine. Of note is that the t (thymine) in the RNA sequence, SEQ ID NO. 1, in the Sequence Listing is actually u (uracil), according to the WIPO Standard ST. 26 for nucleotide or amino acid sequence listing.
(§1) Animal preparation: Female BALB/c mice of 6-8 weeks old were selected and raised in an SPF grade breeding room. Animal testing was conducted in strict accordance with the guidelines of national health institutions and animal ethics requirements.
Immunization of mice: Prior to injection of the test LNP formulations, the LNP formulations were gently and repeatedly inverted to thoroughly mix the formulation samples. A corresponding amount of the formulation samples were aspirated with a 1 ml insulin syringe, and the LNP formulations were injected by intramuscular injection (IM) […], with 8 mice per formulation. Each mouse was injected with 50 μL of the IN002.5.1 mRNA encapsulating lipid nanoparticle formulation.
Spleen acquisition: On the 7th day after immunization, 3 to 4 mice from each LNP immunization group were selected and euthanized, and their spleens were acquired in a super clean bench.
Isolation of lymphocytes: The spleens of mice were taken out in a super clean bench. 7 mL of mouse lymphocyte separation solution was added to a 6-well cell culture plate. Mouse spleen cells were ground with a syringe piston, and the suspension of the spleen cells was filtered through a cell screen and immediately transferred to a 15 mL centrifuge tube. […] RPMI 1640 medium was slowly added with keeping the liquid interface distinct. After centrifugation at 800 g with a horizontal rotor at room temperature for 30 minutes, a clear stratification can be visible. The lymphocyte layer was aspirated, then added with 10 mL RPMI 1640 medium, and inverted for washing. The cells were collected by centrifugation at 250 g for 10 min at room temperature, and the red blood cells were lysed. After completing lysis of red blood cells, the supernatant was poured, and the cells were resuspended in culture medium and counted.
Addition of stimulant and culture of lymphocyte: RPMI-1640 medium containing 10% fetal bovine serum was used to activate the pre-coated plate. After standing at room temperature for at least 30 min, the medium was removed, and a cell suspension at adjusted concentration was added ([…]). The medium used to resuspend the cells was used as a background negative control. 10 μL positive stimulant working solution (PMA+Ionomycin (dissolved in DPBS) was added to a positive control well; […] medium used to resuspend the cells was added to a negative control well; 10 µL/well of a peptide library diluted with RPMI 1640 was added to experimental wells. After all samples and the stimulant were added, the plate was covered, incubated in an incubator with 5% CO2 at 37° C. for 16-24 h.
Elispot detection after culture: The cells and the culture medium in the wells were dumped, and the wells were lysed with 200 μL/well of ice-cold deionized water at 4° C. for 10 min. The liquid in the wells were shaken out, and the wells were washed five times with PBS buffer. The wells were incubated with 100 μL/well of 1 μg/ml detection antibody for 2 h at room temperature; and after washing the plate 5 times with PBS, the wells were incubated with 100 μL/well of 1000-fold diluted enzyme labeled avidin (Streptavidin-HRP) for 1 h at room temperature. […]

[2] = system: Female BALB/c mice; assay: In vivo safety of hEPO mRNA lipid nanoparticle: serum alanine aminotransferase (ALT) enzyme activity; details: hEPO mRNA LNP, 300 μL IV, serum 12 h after injection; FIG. 1
Procedure: A human erythropoietin mRNA (hEPO mRNA)-encapsulating lipid nanoparticle formulation was prepared according to the method as described in Experimental Example 1, with replacing the luciferase mRNA (Fluc mRNA) with human erythropoietin mRNA (hEPO mRNA), with a concentration of hEPO mRNA of 0.2 g/L, a mass ratio of hEPO mRNA to Lipid of 1:10, a particle size of 90-130 nm, and an encapsulation efficiency of above 90% or higher.
as §1
In vivo Delivery: Prior to injection of the test LNP formulations, the LNP formulations were gently and repeatedly inverted to thoroughly mix the formulation samples. A corresponding amount of the formulation samples were aspirated with a 1 ml insulin syringe, and the LNP formulations were injected by tail vein injection (IV), with 5 mice per formulation. Each mouse was injected with 300 μL of the human erythropoietin mRNA (hEPO mRNA)-encapsulating lipid nanoparticle formulation.
Serum acquisition: Blood samples of mice were collected 12 h after injection, placed in tubes without anticoagulants, and naturally coagulated at room temperature for 30-60 min, and then centrifuged at a speed of 3500 rpm for 10 min to obtain the supernatant, which was the serum.
The detection of alanine transaminase was carried out according to instructions of the kit (Nanjing Jiancheng Bioengineering Institute, Catalog. No. C009-2-1), and a standard curve was made using the standard provided in the kit. D-PBS was used in the experiment, which was purchased from Sangon Biotech (Shanghai) Co., Ltd., Catalog No. E607009-0600.
The method of detection of enzyme activity of alanine aminotransferase (ALT) in serum of the mice is as follows:
• (1) Enzymatic reaction: 0, 2, 4, 6, 8 and 10 μL of […] sodium pyruvate standard solution were sequentially added to 5 μL of 0.1 mol/L phosphate buffer, and the volume was supplemented to 25 μL with a matrix solution, and repeatedly aspirating and spitting with a pipette for mixing well; • (2) Addition reaction: 20 μL 2,4-dinitrophenylhydrazine solution was added to all reaction wells in (1), mixed by aspirating and spitting, and then placed in an incubator at 37° C. to react for 20 min; • (3) Developing: 200 μL of 0.4 mol/L NaOH solution was added to all reaction wells in (2) to stop the reaction, mixed by aspirating and spitting, and incubated at room temperature for 15 min. The OD value of each well was measured at 510 nm in a microplate reader; and • (4) Data processing of standard curve: The corresponding absolute OD value for each well was obtained by subtracting the OD value for 0 μL well from the measured OD value for each well, the corresponding ALT Karmen units being 0, 28, 57, 97, 150 and 200 U/L, respectively. The standard curve was obtain by taking the absolute OD value as the abscissa and the corresponding Karmen unit as the ordinate.
• (1) Reagent preparation: an ALT matrix solution was placed in an incubator at 37° C. for preheating; • (2) Enzymatic reaction: 5 μL diluted serum was aspirated and added to a 96-well plate, then 20 μL matrix solution was added to the corresponding sample well and mixed by repeatedly aspirating and spitting to avoid bubbling, and then placed in an incubator at 37° C. for 30 min; • (3) Addition reaction: 20 μL 2,4-dinitrophenylhydrazine was added to all reaction wells in (2), mixed by aspirating and spitting, and then reacted in an incubator at 37° C. for 20 min; • (4) Developing: 200 μL of 0.4 mol/L NaOH solution was added to all reaction wells in (3) to stop the reaction, mixed by aspirating and spitting, and then incubated at room temperature for 15 min. […]

[3] = Preparation and characterisation of mRNA-encapsulating lipid nanoparticle (encapsulation efficiency, particle size); assay type: physicochemical; details: LNP encapsulating Fluc mRNA; Lipid:DSPC:CHO-HP:M-DMG-2000 48:10:40.5:1.5
Procedure: A specified amount of Fluc mRNA stock solution, 0.2 M sodium acetate buffer, and DEPC water were added to a container, and mixed well to obtain a water phase;
The amino lipid compound of the present disclosure, a helper lipid, a structural lipid, and a PEG-lipid were separately dissolved in absolute ethanol to prepare respective solutions at concentrations of 20 mg/mL, 10 mg/mL, 20 mg/mL, and 25 mg/mL, respectively. The above four solutions were pipetted at a molar ratio of Lipid:DSPC:CHO—HP:M-DMG-2000 of 48:10:40.5:1.5, and mixed well to prepare an alcohol phase. • (2) Encapsulation: The water phase and the alcohol phase were injected into a microfluidic chip at a flow rate of water phase: alcohol phase=12 mL/min: 4 mL/min by using a microfluidic preparation instrument (MPE-L2), and encapsulation was carried out at a flow rate of water phase: alcohol phase=9 mL/min: 3 mL/min to obtain mRNA-encapsulating lipid nanoparticle (mRNA-LNP). • (3) Dialysis: The product of step (2) was loaded in a dialysis bag and placed in a Tris Buffer-8% sucrose solution for replacement to remove ingredients such as residual ethanol, unassembled lipids. Dialysis was conducted for 2 h with magnetic stirring at room temperature and under protection from light (dialysate was replaced every 1 hour). • (4) The product of step (3) was sterilized by passing through a […] microporous membrane, and then packaged.
Lipid nanoparticle formulations encapsulating Fluc mRNA were prepared, with a concentration of Fluc mRNA of 0.2 g/L, a mass ratio of Fluc mRNA to Lipid of 1:10, a particle size of 80-130 nm, and a encapsulation efficiency of 85% or higher.
The encapsulation efficiency of the lipid nanoparticle encapsulating luciferase mRNA (Fluc mRNA) with a representative amino lipid compound and the fluorescence expression intensity induced by the same are shown in Table 4, with the amino lipid compound 118 as a control. […]

[4] = system: Female BALB/c mice; assay: Performance evaluation of in vivo delivery of Fluc mRNA lipid nanoparticle (IVIS, body and organs); details: Fluc mRNA LNP; for Liver (fluorescence expression intensity) / Spleen (fluorescence expression intensity): 75 μL IV; for Liver (fluorescence expression intensity) / Spleen (fluorescence expression intensity) / Total flux (fluorescence expression intensity) / (Spleen/Total Flux) * 100%: 6 hours after injection; for Liver (fluorescence expression intensity) / Spleen (fluorescence expression intensity) / Total flux (fluorescence expression intensity): IVIS; for Total flux (fluorescence expression intensity): 75 μL tail vein injection (IV); for (Spleen/Total Flux) * 100% / Multiple of spleen delivery/total delivery to amino lipid compound 118: IV; for Multiple of spleen delivery/total delivery to amino lipid compound 118: relative to amino lipid compound 118
Procedure: as §1
In vivo Delivery: prior to injection of the test LNP formulations, the LNP formulations were gently and repeatedly inverted to thoroughly mix the formulation samples. A corresponding amount of the formulation samples were aspirated with a 1 ml insulin syringe, and the LNP formulations were injected by tail vein injection (IV), with 3 mice in duplicate per formulation. Each mouse was injected with 75 μL of the luciferase mRNA (Fluc mRNA)-encapsulating lipid nanoparticle formulation prepared in Experimental Example 1.
6 hours after injection of LNP formulations, mice were injected with 200 μL D-Luciferin luciferase developing substrate (Catalog No. 122799; Manufacturer: Perkin Elmer). After the substrate was injected, the mice were anesthetized with isoflurane inhalation, and the injection time of luciferase developing substrate was recorded.
The encapsulation efficiency of the lipid nanoparticle encapsulating luciferase mRNA (Fluc mRNA) with a representative amino lipid compound and the fluorescence expression intensity induced by the same are shown in Table 4, with the amino lipid compound 118 as a control.
The multiple of spleen delivery/total delivery of fluorescence expression intensity induced by lipid nanoparticle encapsulating luciferase mRNA (Fluc mRNA) with a representative amino lipid compound to amino lipid compound 118 is shown in Table 5.

[5] = system: Female BALB/c mice; assay: Humoral immunity test for total binding IgG antibody (ELISA, SARS-COV-2 antigen protein) in serum of immunized mice; assay type: in vivo; details: IN002.5.1 mRNA LNP, 50 μL IM, serum on 14th day after immunization; FIG. 5-6

CCCCCCC(CCCCCC)OC(=O)CCCCCCCCC(CCCCCCCCC(=O)OC(CCCCCC)CCCCCC)OC(=O)N(CCCCC(=O)OC(C)CC)CCCN(C)C (stereo not shown) [Compound 302]
Cellular immunity effect (IFN-γ Elispot) compared to ALC0315 [1]: better cellular immunity effect

CCCCCCC(CCCCCC)OC(=O)CCCCCCCCC(CCCCCCCCC(=O)OC(CCCCCC)CCCCCC)OC(=O)N(CCCCCC(=O)OCCCC)CCCN(C)C [Compound 252]
ALT enzyme activity (Karmen unit) compared to ALC0315 and SM-102 [2]: significantly lower ALT enzyme activity

CCCCCCC(CCCCCC)OC(=O)CCCCCCCCC(CCCCCCCCC(=O)OC(CCCCCC)CCCCCC)OC(=O)N(CCCCC(=O)OCCCC)CCCN(C)C [Compound 255]
ALT enzyme activity (Karmen unit) compared to ALC0315 and SM-102 [2]: significantly lower ALT enzyme activity

CCCCCCC(CCCCCC)OC(=O)CCCCCCCCC(CCCCCCCCC(=O)OC(CCCCCC)CCCCCC)OC(=O)N(CCCC(=O)OCCCCC)CCCN(C)C [Compound 260]
ALT enzyme activity (Karmen unit) compared to ALC0315 and SM-102 [2]: significantly lower ALT enzyme activity
Encapsulation efficiency [3]: 95.36%
Liver (fluorescence expression intensity) [4]: 9.60E+07
Spleen (fluorescence expression intensity) [4]: 3.27E+06
Total flux (fluorescence expression intensity) [4]: 4.11E+08
(Spleen/Total Flux) * 100% [4]: 0.80%
Multiple of spleen delivery/total delivery to amino lipid compound 118 [4]: 2.34

CCCCCCC(CCCCCC)OC(=O)CCCCCCCCC(CCCCCCCCC(=O)OC(CCCCCC)CCCCCC)OC(=O)N(CCCC(=O)OC(C)C)CCCN(C)C [Compound 307]
Cellular immunity effect (IFN-γ Elispot) compared to ALC0315 [1]: better cellular immunity effect

CCCCCCC(CCCCCC)OC(=O)CCCCCCCCC(CCCCCCCCC(=O)OC(CCCCCC)CCCCCC)OC(=O)N(CCCN(C)C)CC(=O)OCCC [Compound 269]
Humoral immunity effect (IgG titer) compared to ALC0315 [5]: better humoral immunity effect

CCCCCCC(CCCCCC)OC(=O)CCCCCCCCC(CCCCCCCCC(=O)OC(CCCCCC)CCCCCC)OC(=O)N(CCCC(=O)OCCCC)CCCN(C)C [Compound 259]
ALT enzyme activity (Karmen unit) compared to ALC0315 and SM-102 [2]: significantly lower ALT enzyme activity
Encapsulation efficiency [3]: 94.08%
Liver (fluorescence expression intensity) [4]: 1.37E+08
Spleen (fluorescence expression intensity) [4]: 1.29E+07
Total flux (fluorescence expression intensity) [4]: 6.40E+08
(Spleen/Total Flux) * 100% [4]: 2.02%
Multiple of spleen delivery/total delivery to amino lipid compound 118 [4]: 5.93
